From US20140288074A1, “FUNGICIDAL PYRAZOLES” (E I DU PONT DE NEMOURS AND COMPANY, priority 2013, published 2014)

Tests used:
Assay type in all cases: in vivo
Botrytis cinerea = assay: Test A: preventive spray on tomato seedlings, tomato Botrytis, visual disease rating; conditions: 200 ppm test suspension, Botrytis cinerea inoculated the day after spraying; for pest or weed control at 200 ppm: 120 h
Experimental: General protocol for preparing test suspensions for Tests A-G: the test compounds were first dissolved in acetone in an amount equal to 3% of the final volume and then suspended at the desired concentration (in ppm) in acetone and purified water (50/50 mix by volume) containing 250 ppm of the surfactant Trem® 014 (polyhydric alcohol esters). The resulting test suspensions were then used in Tests A-G. Each test was conducted in triplicate, and the results were averaged. Spraying a 200 ppm test suspension to the point of run-off on the test plants was the equivalent of a rate of 800 g/ha. Unless otherwise indicated, the rating values indicate a 200 ppm test suspension was used. (An asterisk “*” next to the rating value indicates a 40 ppm test suspension was used.) The test suspension was sprayed to the point of run-off on tomato seedlings. The following day the seedlings were inoculated with a spore suspension of Botrytis cinerea (the causal agent of tomato Botrytis) and incubated in saturated atmosphere at 20° C. for 48 h, and then moved to a growth chamber at 24° C. for 3 additional days, after which time visual disease ratings were made. Results for Tests A-G are given in Table A. In the Table, a rating of 100 indicates 100% disease control and a rating of 0 indicates no disease control (relative to the controls). A hyphen (-) indicates no test results.

[1] = tested on: Blumeria graminis f. sp. tritici; assay: Test G: preventive spray on wheat seedlings, wheat powdery mildew, visual disease rating;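 for all read-outs here: rated 8 days after spore dust inoculation at 20 °C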; conditions: 200 ppm test suspension, Blumeria graminis f. sp. tritici inoculated the day after spraying; for pest or weed control at 200 ppm: 192 h
Experimental: General protocol for preparing test suspensions for Tests A-G: the test compounds were first dissolved in acetone in an amount equal to 3% of the final volume and then suspended at the desired concentration (in ppm) in acetone and purified water (50/50 mix by volume) containing 250 ppm of the surfactant Trem® 014 (polyhydric alcohol esters). The resulting test suspensions were then used in Tests A-G. Each test was conducted in triplicate, and the results were averaged. Spraying a 200 ppm test suspension to the point of run-off on the test plants was the equivalent of a rate of 800 g/ha. Unless otherwise indicated, the rating values indicate a 200 ppm test suspension was used. (An asterisk “*” next to the rating value indicates a 40 ppm test suspension was used.) The test suspension was sprayed to the point of run-off on wheat seedlings. The following day the seedlings were inoculated with a spore dust of Blumeria graminis f. sp. tritici (also known as Erysiphe graminis f. sp. tritici, the causal agent of wheat powdery mildew) and incubated in a growth chamber at 20° C. for 8 days, after which time visual disease ratings were made. Results for Tests A-G are given in Table A. In the Table, a rating of 100 indicates 100% disease control and a rating of 0 indicates no disease control (relative to the controls). A hyphen (-) indicates no test results.

Septoria nodorum = assay: Test C: preventive spray on wheat seedlings, Septoria glume blotch, visual disease rating; conditions: 200 ppm test suspension, Septoria nodorum inoculated the day after spraying; for pest or weed control at 200 ppm: Parastagonospora nodorum, 264 h
Experimental: General protocol for preparing test suspensions for Tests A-G: the test compounds were first dissolved in acetone in an amount equal to 3% of the final volume and then suspended at the desired concentration (in ppm) in acetone and purified water (50/50 mix by volume) containing 250 ppm of the surfactant Trem® 014 (polyhydric alcohol esters). The resulting test suspensions were then used in Tests A-G. Each test was conducted in triplicate, and the results were averaged. Spraying a 200 ppm test suspension to the point of run-off on the test plants was the equivalent of a rate of 800 g/ha. Unless otherwise indicated, the rating values indicate a 200 ppm test suspension was used. (An asterisk “*” next to the rating value indicates a 40 ppm test suspension was used.) The test suspension was sprayed to the point of run-off on wheat seedlings. The following day the seedlings were inoculated with a spore suspension of Septoria nodorum (the causal agent of Septoria glume blotch) and incubated in a saturated atmosphere at 24° C. for 48 h, and then moved to a growth chamber at 20° C. for 9 days, after which time visual disease ratings were made. Results for Tests A-G are given in Table A. In the Table, a rating of 100 indicates 100% disease control and a rating of 0 indicates no disease control (relative to the controls). A hyphen (-) indicates no test results.

[2] = tested on: Puccinia recondita f. sp. tritici; assay: Test F: preventive spray on wheat seedlings, wheat leaf rust, visual disease rating; conditions: 200 ppm test suspension, Puccinia recondita f. sp. tritici inoculated the day after spraying; for pest or weed control at 200 ppm: 168 h
Experimental: General protocol for preparing test suspensions for Tests A-G: the test compounds were first dissolved in acetone in an amount equal to 3% of the final volume and then suspended at the desired concentration (in ppm) in acetone and purified water (50/50 mix by volume) containing 250 ppm of the surfactant Trem® 014 (polyhydric alcohol esters). The resulting test suspensions were then used in Tests A-G. Each test was conducted in triplicate, and the results were averaged. Spraying a 200 ppm test suspension to the point of run-off on the test plants was the equivalent of a rate of 800 g/ha. Unless otherwise indicated, the rating values indicate a 200 ppm test suspension was used. (An asterisk “*” next to the rating value indicates a 40 ppm test suspension was used.) The test suspension was sprayed to the point of run-off on wheat seedlings. The following day the seedlings were inoculated with a spore suspension of Puccinia recondita f. sp. tritici (the causal agent of wheat leaf rust) and incubated in a saturated atmosphere at 20° C. for 24 h, and then moved to a growth chamber at 20° C. for 6 days, after which time visual disease ratings were made. Results for Tests A-G are given in Table A. In the Table, a rating of 100 indicates 100% disease control and a rating of 0 indicates no disease control (relative to the controls). A hyphen (-) indicates no test results.

Septoria tritici = assay: Test D: preventive spray on wheat seedlings, wheat leaf blotch, visual disease rating; conditions: 200 ppm test suspension, Septoria tritici inoculated the day after spraying; for pest or weed control at 200 ppm: Zymoseptoria tritici, 504 h
Experimental: General protocol for preparing test suspensions for Tests A-G: the test compounds were first dissolved in acetone in an amount equal to 3% of the final volume and then suspended at the desired concentration (in ppm) in acetone and purified water (50/50 mix by volume) containing 250 ppm of the surfactant Trem® 014 (polyhydric alcohol esters). The resulting test suspensions were then used in Tests A-G. Each test was conducted in triplicate, and the results were averaged. Spraying a 200 ppm test suspension to the point of run-off on the test plants was the equivalent of a rate of 800 g/ha. Unless otherwise indicated, the rating values indicate a 200 ppm test suspension was used. (An asterisk “*” next to the rating value indicates a 40 ppm test suspension was used.) The test suspension was sprayed to the point of run-off on wheat seedlings. The following day the seedlings were inoculated with a spore suspension of Septoria tritici (the causal agent of wheat leaf blotch) and incubated in saturated atmosphere at 24° C. for 48 h. and then the seedlings were moved to a growth chamber at 20° C. for 19 additional days, after which time visual disease ratings were made. Results for Tests A-G are given in Table A. In the Table, a rating of 100 indicates 100% disease control and a rating of 0 indicates no disease control (relative to the controls). A hyphen (-) indicates no test results.

| Compound | Test A rating (disease control) (Botrytis cinerea) | Test G rating (disease control) [1] | Test C rating (disease control) (Septoria nodorum) | Test F rating (disease control) [2] | Test D rating (disease control) (Septoria tritici) | pest or weed control at 200 ppm (Botrytis cinerea) | pest or weed control at 200 ppm (Septoria tritici) | pest or weed control at 200 ppm [1] | pest or weed control at 200 ppm (Septoria nodorum) | pest or weed control at 200 ppm [2] |
| --- | --- | --- | --- | --- | --- | --- | --- | --- | --- | --- |
| Cc1nn(C)c(NCC(C)C)c1-c1c(F)cc(F)cc1F [Compound 53] | 95% | 81% | 100% | 100% |  |  |  |  |  |  |
| Cc1nn(C)c(NC(C)C)c1-c1c(F)cc(F)cc1F [Compound 49] | 40% | 0% | 98% | 98% | 0% |  |  |  |  |  |
| 4-(2-chloro-6-fluorophenyl)-N,1,3-trimethyl-α-(1-methylpropyl)-1H-pyrazole-5-methanamine [Compound 34] | 0% | 0% | 99% | 90% | 12% |  |  |  |  |  |
| Cc1nn(C)c(N2CCCCC2C)c1-c1ccc(F)cc1Cl (stereo not drawn) [Compound 43] | 73% | 43% | 0% | 19% | 36% |  |  |  |  |  |
| COCCN(CCOC)c1c(-c2c(F)cc(F)cc2F)c(C)nn1C [Compound 51] | 82% | 55% | 100% | 99% |  |  |  |  |  |  |
| CCCCNc1c(-c2c(F)cc(F)cc2F)c(C)nn1C [Compound 47] | 30% | 0% | 95% | 98% | 57% |  |  |  |  |  |
| Cc1nn(C)c(N2CCCCC2)c1-c1ccc(F)cc1Cl [Compound 41] | 99% | 0% | 0% | 44% | 88% |  |  |  |  |  |
| Cc1nn(C)c(OCC(C)C)c1-c1c(F)cc(F)cc1F [Compound 22, 1,3-dimethyl-5-(2-methylpropoxy)-4-(2,4,6-trifluorophenyl)-1H-pyrazole] |  |  |  |  |  | 0% | 0% | 0% | 0% | 17% |
| COCCOc1c(-c2ccc(F)cc2Cl)c(C)nn1C [Compound 30, 4-(2-chloro-4-fluorophenyl)-5-(2-methoxyethoxy)-1,3-dimethyl-1H-pyrazole] |  |  |  |  |  | 91% | 85% | 0% | 0% | 58% |
| CSC(c1c(-c2c(F)cccc2Cl)c(C)nn1C)C(C)C (stereo not drawn) [Compound 26, 4-(2-chloro-6-fluorophenyl)-1,3-dimethyl-5-[2-methyl-1-(methylthio)propyl]-1H-pyrazole] |  |  |  |  |  | 0% | 3% | 0% | 99% | 98% |
| COCCN(CCOC)c1c(-c2ccc(F)cc2Br)c(C)nn1C [Compound 46] | 0% | 13% | 86% | 68% | 0% |  |  |  |  |  |
| CCC(C)C(N)c1c(-c2c(F)cccc2Cl)c(C)nn1C (stereo not drawn) [Compound 33, 4-(2-chloro-6-fluorophenyl)-1,3-dimethyl-α-(1-methylpropyl)-1H-pyrazole-5-methanamine] |  |  |  |  |  | 90% | 92% | 56% | 98% | 80% |
| COCCNc1c(-c2c(F)cc(F)cc2F)c(C)nn1C [Compound 54] | 0% | 0% | 97% | 95% | 92% |  |  |  |  |  |
| CCN(CC)c1c(-c2ccc(F)cc2Br)c(C)nn1C [Compound 39] | 0% | 0% | 64% | 68% | 0% |  |  |  |  |  |
| CCC(C)COc1c(-c2ccc(F)cc2Br)c(C)nn1C (stereo not drawn) [Compound 23, 4-(2-bromo-4-fluorophenyl)-1,3-dimethyl-5-(2-methylbutoxy)-1H-pyrazole] |  |  |  |  |  | 70% | 95% | 0% | 0% | 9% |
| Cc1nn(C)c(OC(C)C)c1-c1ccc(F)cc1Cl [Compound 31] | 0% | 0% | 0% | 22% | 0% |  |  |  |  |  |
| Cc1nn(C)c(NC(C)C)c1-c1ccc(F)cc1Br [Compound 38] | 100% | 0% | 100% | 100% | 46% |  |  |  |  |  |
| CCC(C)C(SC)c1c(-c2c(F)cccc2Cl)c(C)nn1C (stereo not drawn) [Compound 35, 4-(2-chloro-6-fluorophenyl)-1,3-dimethyl-5-[2-methyl-1-(methylthio)butyl]-1H-pyrazole] |  |  |  |  |  | 0% |  | 69% | 0% | 0% |
